# Experimental data reported in PubChem BioAssay (NCI).
# Where “and” joins values, the source holds several entries; their conditions need not be identical. Equal values may be shown once.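 Briefly, cells in 96-well plates were exposed to five compound concentrations for 48 h, and endpoints were estimated by linear interpolation. GI50: concentration for 50% inhibition of growth. TGI denotes the concentration required for complete inhibition of growth.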
# System: MDA-MB-468 breast
# Experiment: NCI tumour cell line growth inhibition, 48 h
Compound,GI50,TGI
COc1ccc(C(=O)c2no[n+]([O-])c2C(=O)c2ccc(OC)cc2)cc1,1.37 µM,2.78 µM
CCc1n(Cc2ccc3ccccc3c2)cc[n+]1Cc1ccc2ccccc2c1,0.182 µM,0.859 µM
CC(=O)OC1C(C)OC(Oc2c(-c3ccc(O)cc3)oc3cc(O)cc(O)c3c2=O)C(O)C1OC(C)=O (centres undefined),17.8 µM,42.8 µM
O=C1c2c[n+](Cc3ccccc3)ccc2-c2nc3ccccc3c3ccnc1c23,0.389 µM,1.02 µM
Nc1ccccc1SC(CC(=O)c1ccccc1)c1c(Cl)cccc1Cl (centres undefined),6.3 µM,27.9 µM
COC(=O)c1ccc(C)cc1C1CN=NC12Cc1c(C)cccc1C2=O (centres undefined),30.7 µM,> 100 µM
CC(C)(C)c1ccc(OCCCCCCCN2CCNCC2)cc1,1.84 µM,3.58 µM
O=C(Nc1cccc2[nH]c(C(F)(F)F)nc12)c1ccc(Br)cc1F,2.4 µM,7.05 µM
Cc1nc2ccccc2c(/C=C/c2ccc(C(F)(F)F)cc2)c1C(=O)/C=C/c1ccccc1,1.78 µM,3.7 µM
COc1cccc(/C=C2\COc3ccc(O)c(O)c3C2=O)c1OC,1.67 µM,3.91 µM
NC(=O)c1c(NC(=O)c2ccc(C(F)(F)F)cc2Cl)sc2c1CCC(=O)C2,0.277 µM,1.04 µM
CC1=C(C(=O)Nc2cc(F)c(F)cc2F)C(c2ccc(N(C)C)cc2)C(C(=O)Nc2cc(F)c(F)cc2F)=C(C)N1,30.1 µM,> 100 µM
Cc1nc2ccccc2c(/C=C/c2ccc(F)cc2)c1C(=O)/C=C/c1ccccc1,1.86 µM,4.26 µM
O=C(Nc1ccc(Br)cc1)c1cc(Br)ccc1O,0.328 µM and 0.722 µM,1.68 µM and 3.57 µM
Cc1nc2sc(C(=O)Nc3cccc4c3OCCO4)c(N)c2cc1C(C)O (centres undefined),3.64 µM,> 100 µM
Nc1ncnc2occ(-c3ccc(NC(=O)Nc4cccc(C(F)(F)F)c4)cc3)c12,3.62 µM,11.8 µM

Compound,GI50,TGI
O=C1/C(=C/c2ccc([N+](=O)[O-])s2)Oc2ccc(Br)cc21,0.263 µM,0.781 µM
C=CC(=O)N1CCN(c2nc(OC[C@@H]3CCCN3C)nc3c(F)c(-c4nc(N)cc(C)c4C(F)(F)F)c(Cl)cc23)[C@@H](C)C1,1.3 µM,2.7 µM
COc1cc2c(cc1OCCCN1CCN(CCCOc3cc4c(cc3OC)C(=O)N3C[C@H](F)C[C@H]3C=N4)CC1)N=C[C@@H]1C[C@@H](F)CN1C2=O,< 0.01 µM,0.0397 µM
O=C(NCCc1nccs1)c1cnc2c(S)cccc2c1,4.13 µM,39 µM
C=CCn1c(C)nc2cc(Nc3nc(N4CCCC4)nc4nc[nH]c34)ccc21,> 100 µM,> 100 µM
Nc1ncnc2c1ncn2C1OC(F)(COS(N)(=O)=O)C(O)C1O (centres undefined),> 100 µM,> 100 µM
O=C1C=CC(=O)N1c1ccc2ccccc2c1,3.56 µM,14.4 µM
O=C(/C=C/c1cccc(Cl)c1)c1ccccc1,13.1 µM,26.9 µM
O=[N+]([O-])c1cc2c(ccc3ccccc32)o1,0.169 µM,0.446 µM
COc1ccc(/C(=N/O)c2cc(F)c(F)c(OC)c2F)cc1O,0.552 µM,> 100 µM
CCCCCCCCCCCCNCCCc1ccccc1,1.54 µM,3.17 µM
COc1cc(/C=C/C(=O)c2cccc(-n3cc(-c4ccccc4)[nH]c3=O)c2)ccc1O,3.43 µM,22.2 µM
CCn1cnc(C[C@H](NC(=O)[C@@H](NC(=O)Nc2cc(C(F)(F)F)cc(C(F)(F)F)c2)C(C)(C)C)C(=O)OC)c1,5.18 µM,> 10 µM
COc1cccc(C2=C(c3cn(C)c4c(C)cccc34)C(=O)NC2=O)c1,20.6 µM,> 25 µM
O=NN(CC(=O)NNc1ccccc1)CC(=O)NNc1ccccc1,> 78.3 µM,> 100 µM
Cc1cc(N)c2cc(NC(=O)/C=C\c3ccccc3Cl)ccc2n1,0.398 µM,1.48 µM
